Measurements taken from patent US11220482B2, “Aminopyridinemethanol compounds and their use” (UNIVERSITE AMIENS PICARDIE JULES VERNE, priority 2017, dated 2022).
Read-outs that look alike come from different tables or passages of the source. Blank lines part the entries; values can stand above or below the compound they belong to.

Legend:
[1] = tested on: P. falciparum W2; test: P. falciparum growth inhibition assay, second round (SYBR Green I, ICEstimator); assay type: cell-based; conditions: Plasmodium falciparum, 48 h
[2] = tested on: P. falciparum 3D7; test: as above; assay type: cell-based, Plasmodium falciparum; conditions: Plasmodium falciparum, 3D7, 48 h
[3] = tested on: S. typhimurium TA100
[4] = tested on: CHO-K1 cells; test: In vitro micronucleus assay, short-term exposure
Summary of the method: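 Micronuclei were scored in 1000 binucleated cells per well in duplicate wells. Cytostasis came from CBPI over 500 cells. Doses were compared with the negative control by χ2.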

[5] = tested on: S. typhimurium TA1535
[6] = tested on: S. typhimurium TA102
[7] = tested on: Plasmodium falciparum 3D7; test: Plasmodium falciparum susceptibility assay, first round (SYBR Green I); assay type: cell-based; conditions: 3D7, first round, 48-h incubation, strain susceptible to CQ, decreased susceptibility to MQ, read-out: IC50 (nM) Plasmodium falciparum 3D7 (converted)
[8] = tested on: Salmonella strains; test: Bacterial reverse mutation assay (Ames test), overall conclusion; assay type: cell-based, S. typhimurium; conditions: all tested doses, absence or presence of the metabolizing mixture
Procedure: Five strains of S. typhimurium were used. […] An additional strain has been chosen to detect cross-linking mutagens, hydrazines and oxidative agents: TA102, which have an AT base pair at the primary reversion site. Salmonella tester strains were gifts from Prof. B. N. Ames (Berkeley, Calif., USA). They were stored at −80° C. and regularly checked for genetic markers.
Few crystals of the frozen working strains were taken with a sterile pipette, and seeded in 10 mL of nutrient broth (NB No 2, Oxoid). Strains were grown overnight at 37° C. with shaking in Nutrient Broth No. 2, with ampicillin (25 μg/mL) for TA1535, TA97a, TA98, and TA 100, or ampicillin (25 μg/mL) plus tetracyclin (2 μg/mL) for TA 102. At the end of the incubation period, 0.1 mL of each overnight culture was mixed to 0.1 mL S9 Mix or 0.1 mL phosphate-buffered saline (PBS, pH 7.4) in 5 mL plastic tubes and various volumes of the tested samples were added to the mixtures. Each experiment included triplicate plates of four tested doses. A solvent (DMSO, 10 μL) control was added to determine the spontaneous frequency of revertants (quadruple plates). Five positive controls were also included to ensure the performance of the tester strains and the S9 Mix. […] After hardening, the plates were incubated at 37° C. for 48 hours.
At the end of the incubation period, revertants were counted with a laser colony counter equipped with a bacterial enumeration program (Spiral System Instrument Inc., Bethesda, Md., USA).
The Dunnett test was performed to determine a significant difference between the mean number of induced revertants and the mean number of spontaneous revertants.

[9] = tested on: S. typhimurium TA97a
[10] = tested on: S. typhimurium TA98; test: Bacterial reverse mutation assay (Ames test)
[11] = tested on: Plasmodium falciparum W2; test: Plasmodium falciparum susceptibility assay, first round (SYBR Green I); assay type: cell-based; conditions: W2, first round, 48-h incubation, strain resistant to CQ, sensitive to MQ, read-out: IC50 (nM) Plasmodium falciparum W2 (converted)
[12] = tested on: CHO-K1 cells; conditions: Chinese hamster, 24 h
Procedure: All the assays were conducted in duplicate. The CHO-K1 cells, suspended in Mac Coy's 5A medium, were transferred into Labteck wells at a concentration of 100,000 cells/mL, and incubated for 24 hours at 37° C. in CO2 (5%).
The test was performed without metabolic activation: the test substances were added into cell cultures at concentrations previously defined. […] After 24 hours of incubation at 37° C. in CO2 (5%), the culture medium was removed, the cells were rinsed with phosphate buffered saline (PBS), and then returned in culture medium containing […] of cytochalasine B. After a 24-hour incubation period at 37° C., cells were rinsed with phosphate buffered saline (PBS), fixed with methanol and stained with 10% Giemsa for 20 minutes.
The analysis of results was performed under a microscope at ×1000 magnification. The antiproliferative activity of test substances was estimated by counting the number of binucleated cells relative to the number of mononucleated cells on a total of 500 cells for each dose (250 cells counted per well). The proliferation index (Cytokinesis Blocked Proliferative Index CBPI) was calculated using the following formula:
The cytostasis index (CI %), i.e. the percentage of cell replication inhibition, was calculated using the following formula: CI %−100−{100×(CBPItest material−1)/(CBPIsolvent control−1)}
The rates of micronuclei were evaluated for the presence of independent nuclear core entities in 1000 binucleated cells per well, which corresponds to 2000 cells examined by test substance dose. Micronuclei were identified as small nuclei well differentiated from cell nucleus, stained in the same manner and having a diameter less than one third of that of the cell nucleus.
Micronuclei rates obtained for different doses of test substances were compared to the negative control by a χ2 test. The assay was considered positive if: • A dose-response relationship was obtained between the rate of micronuclei and the doses tested, • At least one of these doses induced a statistically significant increase (P<0.05) in the number of micronucleated cells as compared to the negative control.

[13] = tested on: P. falciparum D6, W2 and 3D7 strains; conditions: cited from earlier work

IC50 [1]: 181 nM
IC50 [2]: 1460 nM
Compound: O[C@@H](CNCCCCCCF)c1ccc(-c2ccc(C(F)(F)F)cc2)nc1C(F)(F)F [Compound 30t]

IC50 [1]: 97.1 nM
IC50 [2]: 421 nM
Compound: O[C@H](CNCCCCCCF)c1ccc(-c2ccc(C(F)(F)F)cc2)nc1C(F)(F)F [Compound 30s]

Compound: CCCCCNC[C@@H](O)c1ccc(-c2ccc(C(F)(F)F)cc2)nc1C(F)(F)F [Compound 30c, (S)-2-(Pentylamino)-1-(2-(trifluoromethyl)-6-(4-(trifluoromethyl)phenyl)pyridin-3-yl)ethanol]
Number of revertants by plate (Means ± SD), TA100 ([3]; with S9 mix, 0.4 μg/plate): 202 ± 8^NS
Number of revertants by plate (Means ± SD), TA100 ([3]; with S9 mix, 0.6 μg/plate): 183 ± 12^NS
Number of revertants by plate (Means ± SD), TA100 ([3]; with S9 mix, 0.8 μg/plate): 178 ± 11^NS
Number of revertants by plate (Means ± SD), TA100 ([3]; with S9 mix, 1 μg/plate): 168 ± 12^NS
Number of revertants by plate (Means ± SD), TA100 ([3]; without S9 mix, 0.4 μg/plate): 197 ± 6^NS
Number of revertants by plate (Means ± SD), TA100 ([3]; without S9 mix, 0.6 μg/plate): 201 ± 9^NS
Number of revertants by plate (Means ± SD), TA100 ([3]; without S9 mix, 0.8 μg/plate): 211 ± 12^NS
Number of revertants by plate (Means ± SD), TA100 ([3]; without S9 mix, 1 μg/plate): 206 ± 14^NS
in vitro micronucleus assay result (clastogenic and/or aneugenic activities) [4]: negative results
Number of revertants by plate (Means ± SD), TA1535 ([5]; with S9 mix, 0.4 μg/plate): 22 ± 5^NS
Number of revertants by plate (Means ± SD), TA1535 ([5]; with S9 mix, 0.6 μg/plate): 26 ± 6^NS
Number of revertants by plate (Means ± SD), TA1535 ([5]; with S9 mix, 0.8 μg/plate): 25 ± 8^NS
Number of revertants by plate (Means ± SD), TA1535 ([5]; with S9 mix, 1 μg/plate): 26 ± 7^NS
Number of revertants by plate (Means ± SD), TA1535 ([5]; without S9 mix, 0.4 μg/plate): 26 ± 3^NS
Number of revertants by plate (Means ± SD), TA1535 ([5]; without S9 mix, 0.6 μg/plate): 25 ± 4^NS
Number of revertants by plate (Means ± SD), TA1535 ([5]; without S9 mix, 0.8 μg/plate): 28 ± 8^NS
Number of revertants by plate (Means ± SD), TA1535 ([5]; without S9 mix, 1 μg/plate): 25 ± 6^NS
Number of revertants by plate (Means ± SD), TA102 ([6]; with S9 mix, 0.4 μg/plate): 346 ± 8^NS
Number of revertants by plate (Means ± SD), TA102 ([6]; with S9 mix, 0.6 μg/plate): 349 ± 12^NS
Number of revertants by plate (Means ± SD), TA102 ([6]; with S9 mix, 0.8 μg/plate): 368 ± 11^NS
Number of revertants by plate (Means ± SD), TA102 ([6]; with S9 mix, 1 μg/plate): 359 ± 6^NS
Number of revertants by plate (Means ± SD), TA102 ([6]; without S9 mix, 0.4 μg/plate): 298 ± 21^NS
Number of revertants by plate (Means ± SD), TA102 ([6]; without S9 mix, 0.6 μg/plate): 319 ± 14^NS
Number of revertants by plate (Means ± SD), TA102 ([6]; without S9 mix, 0.8 μg/plate): 331 ± 17^NS
Number of revertants by plate (Means ± SD), TA102 ([6]; without S9 mix, 1 μg/plate): 339 ± 12^NS
IC50 [7]: 232 ± 17 nM
mutagenic activity in Salmonella strains (revertant rates) [8]: No significant increase in revertant rates
Number of revertants by plate (Means ± SD), TA97a ([9]; with S9 mix, 0.4 μg/plate): 128 ± 10^NS
Number of revertants by plate (Means ± SD), TA97a ([9]; with S9 mix, 0.6 μg/plate): 134 ± 8^NS
Number of revertants by plate (Means ± SD), TA97a ([9]; with S9 mix, 0.8 μg/plate): 137 ± 11^NS
Number of revertants by plate (Means ± SD), TA97a ([9]; with S9 mix, 1 μg/plate): 125 ± 8^NS
Number of revertants by plate (Means ± SD), TA97a ([9]; without S9 mix, 0.4 μg/plate): 148 ± 8^NS
Number of revertants by plate (Means ± SD), TA97a ([9]; without S9 mix, 0.6 μg/plate): 155 ± 6^NS
Number of revertants by plate (Means ± SD), TA97a ([9]; without S9 mix, 0.8 μg/plate): 159 ± 8^NS
Number of revertants by plate (Means ± SD), TA97a ([9]; without S9 mix, 1 μg/plate): 138 ± 8^NS
Number of revertants by plate (Means ± SD), TA98 ([10]; with S9 mix, 0.4 μg/plate): 34 ± 6^NS
Number of revertants by plate (Means ± SD), TA98 ([10]; with S9 mix, 0.6 μg/plate): 38 ± 5^NS
Number of revertants by plate (Means ± SD), TA98 ([10]; with S9 mix, 0.8 μg/plate): 28 ± 4^NS
Number of revertants by plate (Means ± SD), TA98 ([10]; with S9 mix, 1 μg/plate): 26 ± 6^NS
Number of revertants by plate (Means ± SD), TA98 ([10]; without S9 mix, 0.4 μg/plate): 35 ± 3^NS
Number of revertants by plate (Means ± SD), TA98 ([10]; without S9 mix, 0.6 μg/plate): 33 ± 2^NS
Number of revertants by plate (Means ± SD), TA98 ([10]; without S9 mix, 0.8 μg/plate): 34 ± 5^NS
Number of revertants by plate (Means ± SD), TA98 ([10]; without S9 mix, 1 μg/plate): 32 ± 6^NS
IC50 [11]: 24.4 nM
BI (binucleated cells) ([12]; 5 μM): 432
CBPI (Cytokinesis-Blocked Proliferative Index) ([12]; 5 μM): 1.86
CI % (cytostasis index) ([12]; 5 μM): 5%
MNC1 (micronucleated cell rate) ([12]; 5 μM): 8 ‰
MNC2 (micronucleated cell rate) ([12]; 5 μM): 12 ‰
MNC-M (mean of micronucleated cell rates) ([12]; 5 μM): 10 ± 2.8 ‰
MONO (mononucleated cells) ([12]; 5 μM): 68
BI (binucleated cells) ([12]; 10 μM): 331
CBPI (Cytokinesis-Blocked Proliferative Index) ([12]; 10 μM): 1.66
CI % (cytostasis index) ([12]; 10 μM): 27%
MNC1 (micronucleated cell rate) ([12]; 10 μM): 9 ‰
MNC2 (micronucleated cell rate) ([12]; 10 μM): 11 ‰
MNC-M (mean of micronucleated cell rates) ([12]; 10 μM): 10 ± 1.4 ‰
MONO (mononucleated cells) ([12]; 10 μM): 169
BI (binucleated cells) ([12]; 50 μM): 218
CBPI (Cytokinesis-Blocked Proliferative Index) ([12]; 50 μM): 1.42
CI % (cytostasis index) ([12]; 50 μM): 52%
MNC1 (micronucleated cell rate) ([12]; 50 μM): 10 ‰
MNC2 (micronucleated cell rate) ([12]; 50 μM): 12 ‰
MNC-M (mean of micronucleated cell rates) ([12]; 50 μM): 11 ± 1.4 ‰
MONO (mononucleated cells) ([12]; 50 μM): 282

Compound: O[C@H](c1cc(C(F)(F)F)nc2c(C(F)(F)F)cccc12)[C@@H]1CCCCN1 [(+)-mefloquine]
factor by which more active than the other mefloquine isomer [13]: 1.6-1.8
